The test system of one assay is SKBR3 cells. The assay is described as follows: Anti-tumor cell proliferation activity of compound of formula (D-H), Cell-Titer Glo, SKBR3. The assay is classed as cell-based, human. The conditions noted are these: Homo sapiens, SK-BR-3, 120 h, read-out: SKBR3 Antiproliferative activity IC50 (nM), SKBR3 cells, 5 days. As to the method: (§1) Cell culture: HCT116 cells and SKBR3 cells were cultured with a McCoy's 5a medium containing 10% fetal bovine serum+1% penicillin-streptomycin at 37° C. with 5% CO2, and OVCAR3 cells were cultured with a 1640 medium containing 20% fetal bovine serum+2 μg/mL bovine insulin+1% penicillin-streptomycin at 37° C. with 5% CO2. Cells at logarithmic growth phase were available for the experiment.
(§2) Cell proliferation activity test: The Cell-Titer Glo reagent was used to test the compound for inhibitory activity on proliferation of the three cell strains HCT116, SKBR3, and OVCAR3. HCT116 cells (1500 per well), SKBR3 cells (3000 per well), and OVCAR3 cells (5000 per well) were seeded on 96-well plates and incubated at 37° C. with 5% CO2 for 24 h. After a solution of the compound to be detected was added (the compound was dissolved in DMSO so that the compound concentration was 1 mM, then the compound was diluted to […] in DMSO at 9 concentrations in a 3-fold dilution, and 10 μL of the prepared compound solution was transferred to the 96-well plate so that the final concentration was 0-300 nM), the mixture was incubated at 37° C. with 5% CO2. HCT116 cells were cultured for 3 days, and SKBR3 cells and OVCAR3 cells were cultured for 5 days. The Cell-Titer Glo reagent was added and the cell activity was measured.
(§3) A negative control group and a positive control group were respectively used as Bottom and Top. The negative control group was not added with cells, only added with the culture medium in the same volume, and other operations were consistent with those of the experimental group. The positive control group was not added with the test drug, and other operations were consistent with those of the experimental group.
(§4) Data analysis: % Inhibition was calculated, and compound IC50 was fitted.
(§5) % Inhibition=1-100%×(Signal−Bottom)/(Top−Bottom).
(§6) Signal referred to the signal value of the experimental group, Bottom referred to the average signal value of the negative control group, and Top referred to the average signal value of the positive control group.

The subject of a further assay is HCT116 cells. The assay is described as follows: Anti-tumor cell proliferation activity of compound of formula (D-H), Cell-Titer Glo, HCT116. The format is cell-based. The conditions noted are these: Homo sapiens, HCT-116, 72 h. How it is done:
as §1, §2, §3, §4, §5, §6

The subject of the next assay is OVCAR3 cells. Nature of the assay: Anti-tumor cell proliferation activity of compound of formula (D-H), Cell-Titer Glo, OVCAR3. The format is cell-based. The note with it: Homo sapiens, OVCAR-3, 120 h, read-out: OVCAR3 Antiproliferative activity IC50 (nM). How it is done: as §1, §2, §3, §4, §5, §6
Setting [1] is: read-out: HCT116 Antiproliferative activity IC50 (nM), HCT116 cells, 3 days.

19 compounds from patent US20250304717A1, “CAMPTOTHECIN DERIVATIVE AND LIGAND-DRUG CONJUGATE” (HAINAN SIMCERE ZAIMING PHARMACEUTICAL CO., LTD., priority 2022, published 2025) can be followed below.

Molecules are shown by their SMILES. Like-named read-outs stand apart in the source and are kept apart here. Where only a bound is given, the exact number is not on record here.

For the compound `CC[C@@]1(O)C(=O)OCc2c1cc1n(c2=O)Cc2c-1nc1cc3c(cc1c2CNC(=O)CO)OCCO3` [Compound 1, (S)-N-((8-ethyl-8-hydroxy-9,12-dioxo-2,3,8,9,12,14-hexahydro-11H-[1,4]dioxino[2,3-g]pyrano[3′,4′:6,7]indolizino[1,2-b]quinolin-15-yl)methyl)-2-hydroxyacetamide], in the assay with SKBR3 cells, the concentration for half-maximal inhibition (IC50) is 8.5 nM. As to `CC[C@@]1(O)C(=O)OCc2c1cc1n(c2=O)Cc2c-1nc1cc(F)c(Cl)cc1c2CNC(=O)CO` [Compound 3, (S)-N-((9-chloro-4-ethyl-8-fluoro-4-hydroxy-3,14-dioxo-3,4,12,14-tetrahydro-1H-pyrano[3′,4′:6,7]indolizino[1,2-b]quinolin-11-yl)methyl)-2-hydroxyacetamide], in the assay with SKBR3 cells, the IC50 was 3.6 nM.

Take `CC[C@@]1(O)C(=O)OCc2c1cc1n(c2=O)Cc2c-1nc1cc(F)c(Br)cc1c2CNC(=O)CO` [Compound 5, (S)-N-((9-bromo-4-ethyl-8-fluoro-4-hydroxy-3,14-dioxo-3,4,12,14-tetrahydro-1H-pyrano[3′,4′:6,7]indolizino[1,2-b]quinolin-11-yl)methyl)-2-hydroxyacetamide]: the IC50 in the assay with SKBR3 cells is 3.3 nM. On to `CC[C@@]1(O)C(=O)OCc2c1cc1n(c2=O)Cc2c-1nc1ccc3c(c1c2CNC(=O)CO)CCC3` [Compound 7, (S)-N-((8-ethyl-8-hydroxy-9,12-dioxo-2,3,8,9,12,14-hexahydro-1H,11H-cyclopenta[f]pyrano[3′,4′:6,7]indolizino[1,2-b]quinolin-15-yl)methyl)-2-hydroxyacetamide], for which, in the assay with HCT116 cells (setting [1]), the IC50 is 10 to 100 nM. As for `CC[C@@]1(O)C(=O)OCc2c1cc1n(c2=O)Cc2c-1nc1cc(F)c(C)cc1c2CNC(=O)C1(O)CC1` [Compound 9, (S)-N-((4-ethyl-8-fluoro-4-hydroxy-9-methyl-3,14-dioxo-3,4,12,14-tetrahydro-1H-pyrano[3′,4′:6,7]indolizino[1,2-b]quinolin-11-yl)methyl)-1-hydroxycyclopropane-1-carboxamide], the IC50 in the assay on HCT116 cells (setting [1]) is below 10 nM; in the assay with SKBR3 cells, 2.1 nM. For `CC[C@@]1(O)C(=O)OCc2c1cc1n(c2=O)Cc2c-1nc1cc(Cl)c(C)cc1c2CNC(=O)C1(O)CC1` [Compound 10, (S)-N-((8-chloro-4-ethyl-4-hydroxy-9-methyl-3,14-dioxo-3,4,12,14-tetrahydro-1H-pyrano[3′,4′:6,7]indolizino[1,2-b]quinolin-11-yl)methyl)-1-hydroxycyclopropane-1-carboxamide], the values for the half-inhibitory concentration (IC50) with HCT116 cells (setting [1]) and in the assay on SKBR3 cells were below 10 nM and 2.3 nM, respectively.

`CC[C@@]1(O)C(=O)OCc2c1cc1n(c2=O)Cc2c-1nc1cc(Cl)c(C)cc1c2CNC(=O)C(O)C1CC1` (stereo partly drawn) [Compound 11, N—(((S)-8-chloro-4-ethyl-4-hydroxy-9-methyl-3,14-dioxo-3,4,12,14-tetrahydro-1H-pyrano[3′,4′:6,7]indolizino[1,2-b]quinolin-11-yl)methyl)-2-cyclopropyl-2-hydroxyacetamide]: the concentration for half-maximal inhibition (IC50) in the assay with SKBR3 cells came to 3.2 nM. Regarding `CC[C@@]1(O)C(=O)OCc2c1cc1n(c2=O)Cc2c-1nc1ccc3c(c1c2CNC(=O)C(O)C1CC1)CCC3` (stereo partly drawn) [Compound 13, 2-cyclopropyl-N—(((S)-8-ethyl-8-hydroxy-9,12-dioxo-2,3,8,9,12,14-hexahydro-1H,11H-cyclopenta[f]pyrano[3′,4′:6,7]indolizino[1,2-b]quinolin-15-yl)methyl)-2-hydroxyacetamide], the 50% inhibitory concentration (IC50) in the assay on HCT116 cells (setting [1]) is below 10 nM; in the assay on OVCAR3 cells, 0.7 nM.

As to `CC[C@@]1(O)C(=O)OCc2c1cc1n(c2=O)Cc2c-1nc1cnc(Br)cc1c2CNC(=O)CO` [Compound 15, (S)-N-((9-bromo-4-ethyl-4-hydroxy-3,14-dioxo-3,4,12,14-tetrahydro-1H-pyrano[3′,4′:6,7]indolizino[1,2-b][1,7]naphthyridin-11-yl)methyl)-2-hydroxyacetamide], the IC50 in the assay on HCT116 cells (setting [1]) lay within 10 to 100 nM. With `CC[C@@]1(O)C(=O)OCc2c1cc1n(c2=O)Cc2c-1nc1cc(F)c(Cl)c(F)c1c2CNC(=O)C1(O)CC1` [Compound 16, (S)-N-((9-chloro-4-ethyl-8,10-difluoro-4-hydroxy-3,14-dioxo-3,4,12,14-tetrahydro-1H-pyrano[3′,4′:6,7]indolizino[1,2-b]quinolin-11-yl)methyl)-1-hydroxycyclopropane-1-carboxamide], the IC50 with HCT116 cells (setting [1]) is below 10 nM; in the assay with SKBR3 cells, 2.3 nM. As for `CC[C@@]1(O)C(=O)OCc2c1cc1n(c2=O)Cc2c-1nc1cc(Cl)c(C)cc1c2CNC(=O)C(C)(C)O` [Compound 17, (S)-N-((8-chloro-4-ethyl-4-hydroxy-9-methyl-3,14-dioxo-3,4,12,14-tetrahydro-1H-pyrano[3′,4′:6,7]indolizino[1,2-b]quinolin-11-yl)methyl)-2-hydroxy-2-methylpropanamide], the IC50 is below 10 nM in the assay on HCT116 cells (setting [1]) and 2.7 nM in the assay on SKBR3 cells. Regarding `CC[C@@]1(O)C(=O)OCc2c1cc1n(c2=O)Cc2c-1nc1cc(Cl)c(C)cc1c2CNC(=O)C(O)C(C)C` (stereo partly drawn) [Compound 18, N—(((S)-8-chloro-4-ethyl-4-hydroxy-9-methyl-3,14-dioxo-3,4,12,14-tetrahydro-1H-pyrano[3′,4′:6,7]indolizino[1,2-b]quinolin-11-yl)methyl)-2-hydroxy-3-methylbutanamide], the IC50 in the assay on HCT116 cells (setting [1]) is 10 to 100 nM; in the assay on SKBR3 cells, 5.1 nM.

In the case of `[2H]C1([2H])Oc2cc3nc4c(c(CNC(=O)C(O)C5CC5)c3cc2O1)Cn1c-4cc2c(c1=O)COC(=O)[C@]2(O)CC` (stereo partly drawn) [Compound 19, 2-cyclopropyl-N—(((S)-7-ethyl-7-hydroxy-8,11-dioxo-7,8,11,13-tetrahydro-10H-[1,3]dioxolo[4,5-g]pyrano[3′,4′:6,7]indolizino[1,2-b]quinolin-14-yl-2,2-d2)methyl)-2-hydroxyacetamide], the IC50 in the assay with HCT116 cells (setting [1]) was below 10 nM. With `[2H]C1([2H])Oc2cc3nc4c(c(CNC(=O)[C@@H](O)C5CC5)c3cc2O1)Cn1c-4cc2c(c1=O)COC(=O)[C@]2(O)CC` [Compound 19-P1, (S)-2-cyclopropyl-N—(((S)-7-ethyl-7-hydroxy-8,11-dioxo-7,8,11,13-tetrahydro-10H-[1,3]dioxolo[14,5-g]pyrano[3′,4′:6,7]indolizino[1,2-b]quinolin-14-yl-2,2-d2)methyl)-2-hydroxyacetamide], the IC50 was below 10 nM with HCT116 cells (setting [1]) and 0.6 nM with OVCAR3 cells. Take `CC[C@@]1(O)C(=O)OCc2c1cc1n(c2=O)Cc2c-1nc1ccc3occc3c1c2CNC(=O)CO` [Compound 20, (S)-N-((8-ethyl-8-hydroxy-9,12-dioxo-8,9,12,14-tetrahydro-11H-furo[3,2-f]pyrano [3′,4′:6,7]indolizino[1,2-b]quinolin-15-yl)methyl)-2-hydroxyacetamide]: the results for the IC50 in the assay with HCT116 cells (setting [1]) and in the assay with SKBR3 cells were 10 to 100 nM and 10.5 nM, respectively.

Take `CC[C@@]1(O)C(=O)OCc2c1cc1n(c2=O)Cc2c-1nc1cc(Cl)c3occc3c1c2CNC(=O)CO` [Compound 27, (S)-N-((4-chloro-8-ethyl-8-hydroxy-9,12-dioxo-8,9,12,14-tetrahydro-11H-furo[3,2-f]pyrano[3′,4′:6,7]indolizino[1,2-b]quinolin-15-yl)methyl)-2-hydroxyacetamide]: the IC50 with HCT116 cells (setting [1]) fell in the range of 10 to 100 nM.

`CC[C@@]1(O)C(=O)OCc2c1cc1n(c2=O)Cc2c-1nc1cc(Cl)c3occc3c1c2CNC(=O)C(O)C1CC1` (stereo partly drawn) [Compound 28, N—(((S)-4-chloro-8-ethyl-8-hydroxy-9,12-dioxo-8,9,12,14-tetrahydro-11H-furo[3,2-f]pyrano[3′,4′:6,7]indolizino[1,2-b]quinolin-15-yl)methyl)-2-cyclopropyl-2-hydroxyacetamide]: the IC50 in the assay with HCT116 cells (setting [1]) is below 10 nM. Turning to `CC[C@@]1(O)C(=O)OCc2c1cc1n(c2=O)Cc2c-1nc1cc3c(c([N+](=O)[O-])c1c2CNC(=O)C(O)C1CC1)OCO3` (stereo partly drawn) [Compound 29, 2-cyclopropyl-N—(((S)-7-ethyl-7-hydroxy-15-nitro-8,11-dioxo-7,8,11,13-tetrahydro-10H-[1,3]dioxolo[4,5-g]pyrano[3′,4′:6,7]indolizino[1,2-b]quinolin-14-yl)methyl)-2-hydroxyacetamide], the IC50 in the assay on HCT116 cells (setting [1]) is 10 to 100 nM. Consider `CC[C@@]1(O)C(=O)OCc2c1cc1n(c2=O)Cc2c-1nc1cc3c(c(F)c1c2CNC(=O)[C@@H](O)C1CC1)OCO3` [Compound 35-P1, 2-cyclopropyl-N-(((S)-7-ethyl-15-fluoro-7-hydroxy-8,11-dioxo-7,8,11,13-tetrahydro-10H-[1,3]dioxolo[4,5-g]pyrano[3′,4′:6,7]indolizino[1,2-b]quinolin-14-yl)methyl)-2-hydroxyacetamide], for which the IC50 in the assay on HCT116 cells (HCT116 cells, 3 days, read-out: HCT116 Antiproliferative activity IC50) was below 10 nM.

In general, IC50 refers to the concentration at which inhibition is half-maximal.
